Laboratory results published in patent US20090081189A1, “Process for in vitro differentiation of neuronal stem cells or of cells derived from neuronal stem cells” (Axaron Bioscfience Ag, priority 2003, published 2009).

Test system: beta-catenin
Test: Western blot of beta-catenin in adult neuronal stem and progenitor cells after inhibition of the Wnt signal pathway
Assay type: cell-based, rat
Details: genistein 50 μM, undifferentiated and differentiated, densitometry of Western blot, versus cells without inhibition
Protocol: To inhibit the Wnt signal pathway, the unspecific kinase inhibitor genistein is added at a concentration of 50 μM in order to inhibit the action of glycogen synthase kinase 3 (GSK 3) (Murase S et al., 2002, Neuron, 35, 91-105).
Subsequently, a protein extract (see above, example 1) is prepared and the beta-catenin protein is identified by one dimensional gel electrophoresis and Western blotting (FIG. 3, FIG. 4).
The protein extracts of the adult neuronal stem cells are first fractionated in a 12% polyacrylamide gel in Lammli buffer consisting of 2% (w/v) sodium dodecylsulfate, 10% (v/v) glycerol, 100 mM dithiothreitol, 60 mM Tris-HCl, pH 6.8, 0.001% bromophenol blue and 5% 2-mercaptoethanol and applied to a nitrocellulose membrane (Optitran BA-S83, 0.2 μm, Schleicher & Schnell, Dassel, Germany) by the semi-dry blotting method (Kyhse-Andersen J, 1984, J Biochem Biophys Methods, 10, 203-209). […] Antibody binding is detected by way of chemiluminescent signals. […] The X-ray films are developed and measured densitometrically. […]

O=c1c(-c2ccc(O)cc2)coc2cc(O)cc(O)c12 [genistein, 4′,5,7-trihydroxyisoflavone]
reduction of β-catenin expression (factor): ~2
